Patent US20160051706A1, “PROCESS FOR PRODUCING A COMPLEX OF A LANTHANIDE WITH A MACROCYCLIC LIGAND” (AGFA HEALTHCARE, priority 2013, published 2016)
“And” between values parts separate entries of the source, which are not always exact repeats. Equal entries are not always repeated.

Experiments:
[1] = Moisture content of DOTA (Karl Fischer) over time at controlled relative humidity; assay type: physicochemical; conditions: Temp. 20 ± 2° C.
Description: The measurement of the moisture content in DOTA is performed as described in the semi-micro method of Karl Fischer (Fischer, Karl-Pharm. Eur. Section 2.5.12). This section and the next section illustrates how the moisture content in a batch of a macrocyclic ligand changed when the product was exposed to different conditions of relative humidity. The moisture content in the samples was measured using methods known to those skilled in the art. In this example, the measurement of the content of moisture in DOTA was performed as described above. Two samples of DOTA were kept in conditions of relative humidity (RH)=30+5% at a temperature of Temp=20+2° C. From these samples, small samples were taken at different times (T0=beginning of the experiment; T30=T0+30 min; T90=T0+90 min; and […]=T0+300 min) and the moisture content was measured as described above. Each experiment (Exp.) was performed twice and the average of each (Ind.) was determined (Avg.). This measurement, as the previous one, illustrated how the moisture content in a batch of a macrocyclic ligand was affected by the environmental relative humidity conditions. Therefore, the previous experiments were repeated in the same conditions but at a RH=75+5%. Again, each experiment (Exp.) was performed twice and the average of each (Ind.) was determined (Avg.).

[2] = LD50 better than for free DOTA; cited from earlier work

| Structure (SMILES) | Moisture content DOTA, Avg. ([1]; T0, RH 30 ± 5%) | Moisture content DOTA, Ind. ([1]; T0, RH 30 ± 5%) | Moisture content DOTA, Avg. ([1]; T0, RH 75 ± 5%) | Moisture content DOTA, Ind. ([1]; T0, RH 75 ± 5%) | Moisture content DOTA, Avg. ([1]; T30 (T0+30 min), RH 30 ± 5%) | Moisture content DOTA, Ind. ([1]; T30 (T0+30 min), RH 30 ± 5%) | Moisture content DOTA, Avg. ([1]; T30 (T0+30 min), RH 75 ± 5%) | Moisture content DOTA, Ind. ([1]; T30 (T0+30 min), RH 75 ± 5%) | Moisture content DOTA, Avg. ([1]; T90 (T0+90 min), RH 30 ± 5%) | Moisture content DOTA, Ind. ([1]; T90 (T0+90 min), RH 30 ± 5%) | Moisture content DOTA, Avg. ([1]; T90 (T0+90 min), RH 75 ± 5%) | Moisture content DOTA, Ind. ([1]; T90 (T0+90 min), RH 75 ± 5%) | Moisture content DOTA, Avg. ([1]; T300 (T0+300 min), RH 30 ± 5%) | Moisture content DOTA, Ind. ([1]; T300 (T0+300 min), RH 30 ± 5%) | Moisture content DOTA, Avg. ([1]; T300 (T0+300 min), RH 75 ± 5%) | Moisture content DOTA, Ind. ([1]; T300 (T0+300 min), RH 75 ± 5%) | LD50 of Na2 [Ca-DOTA] relative to free DOTA [2] |
| --- | --- | --- | --- | --- | --- | --- | --- | --- | --- | --- | --- | --- | --- | --- | --- | --- | --- |
| O=C(O)CN1CCN(CC(=O)O)CCN(CC(=O)O)CCN(CC(=O)O)CC1 [DOTA, 1,4,7,10-tetraazacyclododecane-1,4,7,10-tetraacetic acid] | 4.929 wt. % and 5.25 wt. % | 5.150 wt. % and 4.941 wt. % and 4.929 wt. % and 5.346 wt. % | 4.94 wt. % and 5.25 wt. % | 5.150 wt. % and 4.941 wt. % and 4.929 wt. % and 5.346 wt. % | 4.98 wt. % and 6.20 wt. % | 6.247 wt. % and 4.944 wt. % and 5.020 wt. % and 6.154 wt. % | 6.71 wt. % and 6.65 wt. % | 6.851 wt. % and 6.734 wt. % and 6.694 wt. % and 6.449 wt. % | 5.00 wt. % and 6.12 wt. % | 6.170 wt. % and 5.038 wt. % and 4.954 wt. % and 6.062 wt. % | 7.34 wt. % and 6.88 wt. % | 6.789 wt. % and 7.475 wt. % and 7.200 wt. % and 6.962 wt. % | 5.15 wt. % and 6.19 wt. % | 6.268 wt. % and 5.178 wt. % and 5.114 wt. % and 6.106 wt. % | 5.86 wt. % and 4.36 wt. % | 4.609 wt. % and 5.914 wt. % and 5.813 wt. % and 4.111 wt. % | – |
| O=C([O-])CN1CCN(CC(=O)[O-])CCN(CC(=O)[O-])CCN(CC(=O)[O-])CC1.[Ca+2].[Na+].[Na+] [Na2 [Ca-DOTA]] | – | – | – | – | – | – | – | – | – | – | – | – | – | – | – | – | at least 40 times |
